Test results taken from PubChem BioAssay (NCI).
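How tested: cells in 96-well plates exposed to compound for 48 hours at five concentrations. GI50: concentration for 50% inhibition of growth. The concentration for full growth arrest is given as TGI.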

Experiments:
Experiment in all cases: NCI tumour cell line growth inhibition, 48 h
[1] = test system: IGROV1 ovarian
[2] = test system: MOLT-4 leukemia
[3] = test system: NCI-H226 lung
[4] = test system: HCT-116 colon
[5] = test system: SK-OV-3 ovarian
[6] = test system: SK-MEL-5 melanoma
[7] = test system: MCF7 breast
[8] = test system: HL-60(TB) leukemia
[9] = test system: 786-0 renal
[10] = test system: HCC-2998 colon

Row | SMILES | TGI [1] [µM] | TGI [2] [µM] | TGI [3] [µM] | TGI [4] [µM] | TGI [5] [µM] | TGI [6] [µM] | TGI [7] [µM] | TGI [8] [µM] | TGI [9] [µM] | GI50 [1] [µM] | GI50 [2] [µM] | GI50 [10] [µM] | TGI [10] [µM] | GI50 [3] [µM] | GI50 [4] [µM] | GI50 [5] [µM] | GI50 [6] [µM] | GI50 [7] [µM] | GI50 [9] [µM] | GI50 [8] [µM]
1 | CCc1oc2ccccc2c1C(=O)c1cc(Br)c(O)c(Br)c1 | > 100 | 59.7 | 50 | 55.7 | > 100 | 32.2 | 51.5 | 33.3 | 55.6 | – | – | – | – | – | – | – | – | – | – | –
2 | Cc1cc(N/N=C/c2nc(-c3ccccc3)oc2C)c2cc(Cl)ccc2n1 | 3.32 | 4.54 | 6.88 | 3.39 | 3.29 | 3.2 | 3.56 | – | 3.38 | 1.68 | 2.04 | 1.73 | 3.23 | 2.38 | 1.82 | 1.75 | 1.76 | 1.64 | 1.64 | –
3 | Cn1c(=O)c2[nH]c(COCc3nc4c([nH]3)c(=O)n(C)c(=O)n4C)nc2n(C)c1=O | > 100 | > 100 | > 100 | > 100 | > 100 | > 100 | > 100 | > 100 | > 100 | – | – | – | – | – | – | – | – | – | – | –
4 | O=[N+]([O-])c1cc(Br)cc2c1[nH]c1ccc(Br)cc12 | 38.7 | – | 21.9 | 21.5 | 15.4 | > 100 | > 100 | – | 27.4 | 2.74 | – | 9.86 | > 100 | 3.24 | 5 | 3.59 | 8.03 | 6.34 | 5.47 | –
5 | COc1cc(-c2cn(-c3ccc(Cl)cc3)c(=O)[nH]2)cc(OC)c1OC | > 100 | 8.86 | > 100 | > 100 | > 100 | > 100 | > 100 | – | > 100 | > 100 | 0.0199 | > 100 | > 100 | > 100 | > 100 | > 100 | > 100 | > 100 | > 100 | –
6 | N#CC(C#N)=CN1CCN(C(=O)c2ccccc2)C1=S | > 100 | > 100 | – | > 100 | > 100 | 50.1 | 55.9 | 79.4 | > 100 | 28.2 | 39.2 | – | – | – | 34 | 66.7 | 23.3 | 16.7 | 38.9 | 33.5
7 | COc1ccc(C=NC23CC4CC(CC(C4)C2)C3)cc1 | > 100 | > 100 | > 100 | > 100 | > 100 | > 100 | – | > 100 | > 100 | – | – | – | > 100 | – | – | – | – | – | – | –
8 | O=C(Nc1nccs1)c1cc(C2=CC=CC([N+](=O)[O-])C=C2)nc(=S)[nH]1 (stereo not given) | > 100 | > 100 | > 100 | > 100 | > 100 | > 100 | – | > 100 | > 100 | – | – | – | > 100 | – | – | – | – | – | – | –
9 | CCOC(=O)C(Cc1c[nH]c2cc([N+](=O)[O-])ccc12)(NC(C)=O)C(=O)OCC | > 1000 | – | > 1000 | > 1000 | > 1000 | – | > 1000 | – | > 754 | 176 | 35.2 | > 1000 | > 1000 | > 769 | 390 | 184 | – | – | 175 | –
10 | c1cncc(C(Nc2cccc3cccnc23)Nc2cccc3cccnc23)c1 | > 100 | – | – | > 100 | > 100 | > 100 | > 100 | > 100 | > 100 | – | – | – | > 100 | – | – | – | – | – | – | –
11 | O=C(N/N=C/c1cc(Br)cc(Br)c1[O-])c1ccccc1O.O=C(N/N=C/c1cc(Br)cc(Br)c1[O-])c1ccccc1O.[Mn+2] | 22.7 | 7.94 | 11 | 7.36 | 33.8 | 19.2 | – | 2.81 | 15.9 | – | – | – | 25.9 | – | – | – | – | – | 0.887 | –
12 | O=C1C(Cl)=C(N2CCOCC2)C(=O)c2ccccc21 | 6.74 | – | 24.2 | 3.37 | 32.2 | 19.4 | 17.9 | 5.32 | 31.2 | 3.33 | – | 12 | 25.6 | 11.8 | 1.86 | 18.3 | 6.82 | 3.49 | 16.6 | 2.33
13 | COC1=C(C(=O)OC(C)(C)C)[C@]2(C)C(C(=O)OC(C)(C)C)C(OC)=C(C(=O)OC(C)(C)C)[C@]2(C)C1C(=O)OC(C)(C)C (stereo not given in full) | > 100 | > 100 | > 100 | > 100 | > 100 | > 100 | – | > 100 | > 100 | – | – | – | > 100 | – | – | – | – | – | – | –
14 | C=C1C(=O)O[C@@H]2C[C@@H](C)[C@@H]3[C@@H](OC4OC(COC(C)=O)C(O)C(O)C4O)CC(=O)[C@@]3(C)C[C@H]12 (stereo not given in full) | 6.2 | 7.4 | 26.1 | 1.88 | 37.4 | 4.86 | 2.19 | – | 0.883 | – | – | – | 3.14 | – | – | – | – | – | – | –
15 | CN(C)CCCn1c2c3ccccc3ccc2c2oc(=O)c3ccccc3c21 | 23.5 | 5.19 | > 51.8 | 5.05 | > 61.8 | 23.6 | – | 93.9 | 5.54 | – | – | – | 2.46 | – | – | – | – | – | – | –
16 | COC1CC(OS(=O)(=O)c2ccc(C)cc2)C(OS(=O)(=O)c2ccc(C)cc2)C(COS(=O)(=O)c2ccc(C)cc2)O1 (stereo not given) | 17.2 | > 100 | 10.4 | > 100 | 8.62 | 25.7 | – | > 100 | 4.06 | – | – | – | 49.3 | – | – | – | – | – | – | –
17 | O=C(Nc1ccc2oc(=O)c(C(=O)O)cc2c1)Oc1ccccc1 | > 100 | > 100 | > 100 | > 100 | > 100 | > 100 | > 100 | – | > 100 | – | – | – | > 100 | – | – | – | – | – | – | –
18 | O=C(CNC(=O)c1cccc2ccccc12)Nc1ccccc1Oc1ccccc1 | > 10 | > 10 | > 10 | > 10 | 4.34 | 4.1 | > 10 | – | > 10 | 0.91 | 0.348 | 0.712 | > 10 | 2.19 | 0.322 | 0.398 | 0.262 | 0.306 | 0.449 | –
19 | COc1ccc(C(=O)/C=C/c2cc(C(=O)c3cc(OC)c(OC)c(OC)c3)ccc2OC)cc1 | > 100 | – | > 100 | – | > 100 | – | > 100 | – | > 100 | 8.82 | – | – | – | 4.34 | – | > 100 | – | 3.05 | 7.71 | –
20 | O=C(c1cc(-c2cc3c(cc2C(=O)N2Cc4ccccc4C[C@H]2CN2CCOCC2)OCO3)n2c1CCCC2)N(c1ccccc1)c1ccc(O)cc1 | > 100 | – | 56 | > 100 | > 100 | 18.6 | > 100 | 7.16 | > 100 | 5.97 | – | 4.93 | 61.3 | 10.1 | 13.6 | 12.7 | 3.78 | 3.52 | 45.9 | 2.62
21 | Cc1c(C(=O)CC(=O)C(=O)Nc2cccc(C(F)(F)F)c2)[n+](=O)c2ccccc2n1[O-] | 9.34 | 7.56 | 80.8 | 10.2 | 50.2 | 14 | – | 7.65 | 21.5 | – | – | – | 16.1 | – | – | – | – | – | – | –
22 | Cc1nc(Nc2ccc(F)c(Cl)c2)sc1C(=O)O | 5.03 | – | 5.37 | 3.34 | 4.33 | 2.82 | 8.18 | 8.17 | 3.98 | 1.63 | – | – | – | 1.77 | 1.51 | 1.83 | 1.48 | 1.53 | 1.74 | 3.41
23 | COc1ccc(/C=C2\CNC/C(=C\c3ccc(OC)cc3)C2=O)cc1 | > 100 | > 100 | > 100 | 13 | > 100 | > 100 | – | 38.5 | > 100 | – | – | – | > 100 | – | – | – | – | – | – | –
24 | Cc1cc2c(c(C#N)c1C)NC(=O)C(CC(=O)O)C2=O (stereo not given) | > 100 | > 100 | > 100 | > 100 | > 100 | > 100 | – | > 100 | > 100 | – | – | – | > 100 | – | – | – | – | – | – | –
25 | Cc1ccc(C2=Nc3ccccc3NC(=O)C2)cc1 | > 100 | > 100 | > 100 | > 100 | > 100 | > 100 | – | > 100 | > 100 | – | – | – | > 100 | – | – | – | – | – | – | –
26 | Cc1cc(-c2nc3ccc(O)cc3s2)ccc1N | > 100 | > 100 | > 100 | > 100 | > 100 | > 100 | > 100 | – | > 100 | 47.5 | 27.1 | > 100 | > 100 | 60.2 | 43.9 | 36.9 | 52.1 | 56.5 | 29.2 | –
